Reference: patent publication US20110287080A1, “COATING II” (SMITH & NEPHEW PLC, priority 2008, published 2011)

Assay: Elution of rapamycin from polymer-coated stents into PBS at 37° C., monitored by UV/vis
Format: physicochemical
Settings: stent coating with 25% rapamycin, cumulative absorbance at 279 nm
Description: Solutions were prepared by dissolving the polymers listed in Table 1 in CHCl3 with 25% (by weight of the solid polymer) rapamycin. After cooling for 5 minutes, the stents were attached to a mandrel and coated on the Sonotek MediCoat Benchtop Coater with a 0.5% w/w solution in CHCl3 of polymer/drug (75/25). The parameters used were: 0.09 ml/min flow rate, 1.0 W ultrasonic power, 16 passes, 40 rpm rotation, 0.13 cm/s horizontal travel and 25 mm from stent to spray head. After coating, the stents were dried under vacuum for 16 hours at 40° C. The stents were released into phosphate buffered saline solution (PBS) at 37° C. and the elution monitored by UV/vis spectroscopy. Fresh buffer solution was added after each reading and the cumulative absorbance at 279 nm was recorded.

## CCCCCCCCCCCC(=O)O [lauric acid]
  rate of release (elution) of rapamycin: minimal affect on the rate of release of rapamycin
